Experimental data: patent US20110251160A1 (priority 2008, published 2011)
Like-named read-outs stand apart in the source and are kept apart here.

Columns and labels:
[1] = system: patients with atrial fibrillation at risk of stroke
From the text: Median follow-up was 2.0 years and the primary outcome was stroke or systemic embolism.
Patients were recruited from 951 clinical centers in 44 countries. In brief, patients were eligible if they had atrial fibrillation documented on electrocardiogram at screening or within 6 months; and at least one of the following: prior stroke or transient ischemic attack; left ventricular ejection fraction less than 40%; New York Heart Association heart failure symptoms of Class 2 or greater within 6 months; age at least 75 years; or age at least 65 years with diabetes mellitus, hypertension or coronary artery disease.
The time in therapeutic range was calculated by the method of Rosendaal (Rosendaal F R, et al., A method to determine the optimal intensity of oral anticoagulant therapy, Thromb Haemost, 1993, 69:236-239), excluding INRs from the first week and after discontinuations. […] Concomitant use of aspirin (less than 100 mg/day) or other antiplatelet agents was allowed.
Liver function testing was performed monthly during the first year of follow-up.
The primary study outcome was stroke or systemic embolism. The primary safety outcome was major hemorrhage. Secondary outcomes were stroke, systemic embolism and death. Other outcomes were myocardial infarction, pulmonary embolism, transient ischemic attacks, and hospitalizations. The primary net benefit-risk outcome was the composite of stroke, systemic embolism, pulmonary embolism, myocardial infarction, death or major hemorrhage. Stroke was defined as sudden onset of focal neurological deficit consistent with the territory of a major cerebral artery and categorized as ischemic, hemorrhagic or unspecified. Hemorrhagic transformation of ischemic stroke was not considered as hemorrhagic stroke. Intracranial hemorrhage included hemorrhagic stroke and sub-dural or sub-arachnoid hemorrhage. Systemic embolism was an acute vascular occlusion of an extremity or organ documented by imaging, surgery or autopsy. Major bleeding was defined as a reduction in hemoglobin level of at least […] or transfusion of at least 2 units of blood or symptomatic bleeding in a critical area or organ. Life-threatening bleeding was a subset of major bleeding that included fatal bleeding, symptomatic intracranial bleeding, bleeding with hemoglobin decrease of more than […] or requiring transfusion of more than 4 units of blood or requiring inotropic agents or necessitating surgery. All other bleeding was considered minor.
All primary and secondary outcome events were blindly and doubly adjudicated. An international team of adjudicators reviewed documents in local languages after blinding; or documents were translated by a independent group and blinded centrally. All transient ischemic attacks were reviewed to ensure that strokes had not been missed. To detect possible unreported events, symptom questionnaires were regularly administered to patients, and adverse events and hospitalization reports were scrutinized for unreported primary or secondary outcomes.
If maximum of the two p-values was greater than 0.025, the minimum of the two p-values must be less than 0.0125, one-sided, to claim statistical significance. All analyses were based on intention-to-treat.

AF patients [2] = settings: SPORTIF III (2003), cited from earlier work
AF patients [3] = settings: SPORTIF V (2005), cited from earlier work
AF patients [4] = settings: ACTIVE W (2006), warfarin arm; cited from earlier work
[5] = system: patients who have nonvalvular atrial fibrillation; settings: VKAs, such as warfarin; cited from earlier work
[6] = ximelagatran 36 mg b.i.d. vs. warfarin

Compound: CC(=O)CC(c1ccccc1)c1c(O)c2ccccc2oc1=O (racemic) [Warfarin, 3-(α-acetonylbenzyl)4-hydroxycoumarin, reference compound]
- ALT or AST > 3xULN ([1]; Warfarin arm): (2.1) %
- ALT or AST > 3xULN with concurrent bilirubin > 2xULN ([1]; Warfarin arm): (0.4) %
- Adverse Event: Arthralgia ([1]; Warfarin arm): (5.5) %
- Adverse Event: Atrial fibrillation ([1]; Warfarin arm): (5.4) %
- Adverse Event: Back pain ([1]; Warfarin arm): (5.5) %
- Adverse Event: Chest pain ([1]; Warfarin arm): (5.7) %
- Adverse Event: Cough ([1]; Warfarin arm): (5.8) %
- Adverse Event: Diarrhea ([1]; Warfarin arm): (5.5) %
- Adverse Event: Dizziness ([1]; Warfarin arm): (9.3) %
- Adverse Event: Dyspepsia ([1]; Warfarin arm): (1.4) %
- Adverse Event: Dyspnoea ([1]; Warfarin arm): (9.2) %
- Adverse Event: Fatigue ([1]; Warfarin arm): (5.9) %
- Adverse Event: Nasopharyngitis ([1]; Warfarin arm): (5.5) %
- Adverse Event: Peripheral edema ([1]; Warfarin arm): (7.6) %
- Adverse Event: Upper respiratory tract infection ([1]; Warfarin arm): (5.0) %
- Adverse Event: Urinary tract infection ([1]; Warfarin arm): (5.3) %
- All Death, Rate ([1]; Warfarin arm): 4.13 /100 Person Years
- Any Major Bleeding, Rate ([1]; Warfarin arm): 3.46 /100 Person Years
- Extracranial Bleeding, Rate ([1]; Warfarin arm): 2.73 /100 Person Years
- First Hospitalization, Rate ([1]; Warfarin arm): 27.5 /100 Person Years
- Intracranial Bleeding, Rate ([1]; Warfarin arm): 0.72 /100 Person Years
- Life threatening bleeding, Rate ([1]; Warfarin arm): 1.80 /100 Person Years
- Major gastro-intestinal Bleeding, Rate ([1]; Warfarin arm): 1.03 /100 Person Years
- Major or Minor Bleeding, Rate ([1]; Warfarin arm): 23.92 /100 Person Years
- Minor Bleeding, Rate ([1]; Warfarin arm): 21.03 /100 Person Years
- Myocardial Infarction, Rate ([1]; Warfarin arm): 0.54 /100 Person Years
- Non-disabling Stroke Modified Rankin 0-2, Rate ([1]; Warfarin arm): 0.58 /100 Person Years
- Other Major bleeding, Rate ([1]; Warfarin arm): 1.80 /100 Person Years
- Pulmonary embolism, Rate ([1]; Warfarin arm): 0.09 /100 Person Years
- Reason for discontinuation: Gastrointestinal bleeding ([1]; Warfarin arm): (0.9) %
- Reason for discontinuation: Gastrointestinal disorders ([1]; Warfarin arm): (0.8) %
- Reason for discontinuation: Outcome event ([1]; Warfarin arm): (2.2) %
- Reason for discontinuation: Patient decision ([1]; Warfarin arm): (6.2) %
- Reason for discontinuation: SAE ([1]; Warfarin arm): (1.6) %
- Stroke or systemic embolism, Rate ([1]; Warfarin arm): 1.70 /100 Person Years
- Stroke, Hemorrhagic, Rate ([1]; Warfarin arm): 0.38 /100 Person Years
- Stroke, Rate ([1]; Warfarin arm): 1.58 /100 Person Years
- Study Drug Discontinuation At one year ([1]; Warfarin arm): (10) %
- Study Drug Discontinuation At two years ([1]; Warfarin arm): (19) %
- Vascular Death, Rate ([1]; Warfarin arm): 2.69 /100 Person Years
- hepatobiliary disorders (AE) ([1]; Warfarin arm): (2.2) %
- hepatobiliary disorders (SAE) ([1]; Warfarin arm): (0.4) %
- Study Drug Discontinuation At one year ([1]; Warfarin arm, listed as warfarin): 10%
- Stroke, systemic embolism, pulmonary embolism, myocardial infarction death or major bleed, Rate ([1]; net benefit, Warfarin arm): 7.99 /100 Person Years
- Mortality rate, death from any cause ([1]; warfarin): 4.13 % per year
- Rate of discontinuation at 2.5 years ([1]; warfarin): 19%
- Rate of hemorrhagic stroke ([1]; warfarin): 0.38 % per year
- Rate of major hemorrhage / major bleeding ([1]; warfarin): 3.46 % per year
- Rate of myocardial infarction ([1]; warfarin): 0.54 % per year
- Rate of net benefit-risk outcome (major vascular events, major bleeding and death) ([1]; warfarin): 7.99 % per year
- Rate of the primary outcome, stroke or systemic embolism ([1]; warfarin): 1.70 % per year
- Stroke and systemic embolism (per 100 patient years) (AF patients [2]; [6]): 2.3%
- Myocardial Infarction (AF patients [2]; ximelagatran vs. warfarin): 0.6%
- Stroke and systemic embolism (per 100 patient years) (AF patients [3]; [6]): 1.2%
- Myocardial Infarction (AF patients [3]; ximelagatran vs. warfarin): 1.4%
- Myocardial Infarction (AF patients [4]): 0.6%
- Stroke and systemic embolism (per 100 patient years) (AF patients [4]): 1.5%
- Reduction of the risk of stroke compared to control [5]: 64%
